# Measured values reported in patent US20120142730A1 (priority 2010, published 2012).
# System: subjects with relapsing remitting multiple sclerosis (RRMS)
# Assay: ALLEGRO phase III trial: patient-reported fatigue (MFIS), SF-36 and EQ5D
# Format: in vivo, human
# Protocol: Eligible subjects were equally randomized 1:1 into one of the following treatment arms: • 1. […] 21, 2007 (see, page 10, line 5 to page 11, line 3). • 2. Matching placebo for laquinimod arm: one capsule is administered once daily. The following assessments were performed at specified time points: • 1. Vital signs were measured at each study visit. • 2. A physical examination is performed at months −1 (screening), (baseline) 1, 3, 6, 12, 18 and 24 (termination/early discontinuation core study). In case of the 6 months extended study, additional examination was performed at month 30 (termination/early discontinuation of extended study). • 3. The following safety clinical laboratory tests were performed: • a. Complete blood count (CBC) with differential—at all scheduled visits. A reticulocyte count was added to the CBC at months 0 (baseline) and 24/30 (termination/early discontinuation). • b. Serum chemistry (including electrolytes, liver enzymes, direct and total bilirubin and pancreatic amylase and CPK), and urinalysis—at all scheduled visits. • c. A rapid urine β-hCG test was performed in women of child-bearing potential at baseline (month 0) and at each scheduled study visit thereafter (at site). • d. β-hCG in women of child-bearing potential was performed at all scheduled visits. • e. Starting after visit Month 3 a rapid urine β-hCG test was performed in women of child-bearing potential every 28 (±2) days. The subject was contacted by telephone within 72 hours after the test was scheduled to be performed and asked specific questions regarding the test. In case of suspected pregnancy (positive urine β-hCG test result), the caller made sure that the study drug has been discontinued and the subject was instructed to arrive at the site as soon as possible with all study drugs. • 4. Markers of inflammation (serum conventional C-reactive protein and fibrinogen)—at screening, baseline and all scheduled visits thereafter. • 5. During the first 3 months periodical phone calls were placed by the site personnel every two weeks. […] ECG was performed at months −1 (screening; additional recording, up to 30 minutes apart is performed if QTc is […] 450 msec), (baseline; three recordings, 15 minutes apart), 1, 2, 3, 6, 12, 18 and 24 (termination/early discontinuation). In case of the 6 months extended study, ECG is performed at month 30 (termination/early discontinuation of the extended study). • 7. Chest X-ray is performed at months −1 (screening), (if not performed within 7 months prior to the screening visit). • 8. Adverse Events (AEs) are monitored throughout the study. • 9. Concomitant medications are monitored throughout the study. • 10. Neurological evaluations, including Expanded Disability Status Scale (EDSS), 25 foot walk test/Ambulation Index (AI), Functional systems (FS) are performed at months −1 (screening), (baseline) and every 3 months during the study and the extended study period. • 11. MS functional Composite (MSFC) was assessed at months −1 (screening) (three practices for training purposes only), at month 0 (baseline), 6, 12, 18 and 24 (termination/early discontinuation). In case of the 6 months extended study, the last MSFC was performed at months 30 (termination/early discontinuation of the extended study). • 12. Subject-reported fatigue was assessed by the Modified Fatigue Impact Scale (MFIS) at months 0, 6, 12, 18, and 24 (termination/early discontinuation). In case of the 6 months extended study, additional MFIS was performed at month 30 (termination/early discontinuation of the extended study). • 13. The general health status was assessed by the EuroQoL (EQ5D) questionnaire at month 0 (baseline) and month 24 (termination/early discontinuation of the study). In case of the 6 months extended study, the last EuroQoL (EQ5D) was performed at month 30 (termination/early discontinuation of the extended study) instead of month 24. • 14. […]
# [1] = 0.6 mg daily oral, listed as laquinimod
smiles,measurement,setting,value
"CCN(C(=O)c1c(O)c2c(Cl)cccc2n(C)c1=O)c1ccccc1 [Laquinimod, laquinimod]","EQ-5D dimensions, health status at Month 24, words",0.6 mg daily oral,0.6 mg maintained their health status at Month 24 while those treated with placebo reported a
same,MFIS (Modified Fatigue Impact Scale) adjusted mean score at 24 months,0.6 mg daily oral,31.9
same,"SF36 Mental component summary, treatment effect",0.6 mg daily oral vs placebo,1.848
same,MFIS treatment effect,"0.6 mg daily oral vs placebo, month 24, p=0.004",−2.53
same,"EQ5D, effect","0.6 mg daily oral vs placebo, p 0.0267",−2.366
same,"SF36 Physical component summary, effect","0.6 mg daily oral vs placebo, p 0.1354",0.65
same,"SF36 Mental component summary, treatment effect","0.6 mg daily oral vs placebo, listed as laquinimod",1.68
same,EQ5D General Health Status by the Euroqol Questionnaire,"0.6 mg daily oral, month 24",71.0
same,SF36 - SFMHD Mental component summary,"0.6 mg daily oral, month 24",−0.47
same,SF36 - SFPHD Physical component summary,"0.6 mg daily oral, month 24",−0.519
same,MFIS (Modified Fatigue Impact Scale) adjusted mean score at 24 months,[1],31.9 (0.71)
same,"SF-36 PCS score over 24 months, words",[1],The PCS score at Month 24 for those treated with laquinimod 0.6 mg remained stable while the
same,"Functional disability due to fatigue (MFIS), words",0.6 mg vs placebo at Month 24,"average, associated with less functional disability due to fatigue than placebo at Month 24"
same,Change in adjusted mean MFIS psychosocial subscale score from baseline,"at 12 months, p=0.02",significant improvement
same,Change in adjusted mean MFIS physical subscale score from baseline,"at 24 months, p=0.02",significant improvement
same,Change in adjusted mean MFIS cognitive subscale score from baseline,"at 24 months, p=0.05",significant improvement
same,SF-36 PCS subscale role physical,"over 24 months vs placebo, p=0.010",showed improvement
same,SF-36 PCS subscale physical functioning,"over 24 months vs placebo, p=0.016",showed improvement
same,"SF-36 PCS difference from placebo, words","over 24 months, p=0.13",did not reach statistical significance
same,"EQ-5D Anxiety or Depression, effect","vs placebo, Month 24, p 0.0113",1.425
same,"EQ-5D Mobility, effect","vs placebo, Month 24, p 0.0181",1.497
same,"EQ-5D Self care, effect","vs placebo, Month 24, p 0.0337",2.251
same,"EQ-5D Usual activities, effect","vs placebo, Month 24, p 0.4051",1.129
same,"EQ-5D Pain discomfort, effect","vs placebo, Month 24, p 0.8024",1.036
